The results in this text go back to patent US20060009506A1, “Drugs for the treatment of neoplastic disorders” (Odyssey Thera, Inc., priority 2004, published 2006).

For one test, the system named is cancer pathways. Nature of the test: Screening of cancer pathways in human cells (PCA and phospho-immunofluorescence). Format: cell-based. The following applies: cancer pathway in which the drug was active; screened at 10 micromolar, HEK293 cells. The text has this: (§1) We first screened compounds derived from the known pharmacopeia and from a selected natural product collection using two types of assays: (a) measurements of post-translational modifications of proteins; (b) measurements of protein-protein interactions. For the purpose of measuring post-translational modifications of proteins, we used immunofluorescence methods combined with phospho-specific antibodies. For the purpose of quantifying and localizing protein complexes we used fluorescence methods based on protein-fragment complementation assays (PCA). ‘Hits’ from the initial screens were then tested for antiproliferative activity in up to 5 different human tumor cell lines. […] For drugs with antiproliferative activity in PC-3 cells, dose-response curves were generated to determine the EC50 for antiproliferative activity and additional tumor cell lines were tested to determine the breadth of activity. Methods for assay development, validation, screening, and testing of antiproliferative activity are described below.
Immunofluorescence was performed on drug-treated cells using antibodies that specifically recognize phosphorylated forms of key signaling proteins. HEK293T cells were seeded in black-walled, poly-lysine coated 96-well plates (Greiner) at a density of 30,000/well. After 24 hours, cells in duplicate wells were treated with drugs. 100 ng/ml hEGF added to the cells during the last 5 min of drug treatment. The cells were rinsed once with PBS and fixed with 4% formaldehyde for 10 min. The cells were subsequently permeabilized with 0.25% Triton X-100 in PBS and incubated with 3% BSA for 30 min to block non-specific antibody binding. Each of the 4 sets of identically treated cells were then incubated with rabbit antibodies against phosphorylated CREB (Ser133), hsp27 (Ser82), pERK (T202/Y204) (Cell Signaling), or BSA in PBS. The cells were rinsed with PBS and incubated with Alexa488 conjugated goat anti-rabbit secondary antibody (Molecular Probes). Cell nuclei were stained with Hoechst33342 (Molecular Probes). Images were acquired using Discovery-1 High Content Imaging System (Molecular Devices). Background fluorescence due to nonspecific binding by the secondary antibody was established with the use of cells that were incubated with BSA/PBS and without primary antibodies. Fluorescence intensities were quantitated using Image J-based image analysis algorithm as described below.
Reporter fragments for PCA were generated by oligonucleotide synthesis (Blue Heron Biotechnology, Bothell, Wash.). First, oligonucleotides coding for polypeptide fragments YFP[1]and YFP[2] […] Next, PCR mutagenesis was used to generate the mutant fragments IFP[1] and IFP[2]. The IFP[1] fragment corresponds to YFP[1]-(F46L, F64L, M153T) and the IFP[2] fragment corresponds to YFP[2]-(V163A, S175G). […] The YFP[1], YFP[2], IFP[1] and IFP[2] fragments were amplified by PCR to incorporate restriction sites and a linker sequence, described below, in configurations that would allow fusion of a gene of interest to either the 5′- or 3′-end of each reporter fragment. The reporter-linker fragment cassettes were subcloned into a mammalian expression vector (pcDNA3.1Z, Invitrogen) that had been modified to incorporate the replication origin (oriP) of the Epstein Barr virus (EBV). […] Additionally, these vectors still retain the SV40 origin, allowing for episomal expression in cell lines expressing the SV40 large T antigen (e.g. HEK293T, Jurkat or COS). […] PCA fusion constructs were prepared for a large number of proteins known to participate in cellular pathways (Table 1 and Table 2). The full coding sequence for each gene of interest was amplified by PCR from a sequence-verified full-length cDNA.

The test system of another test is cancer cells. As to the kind of experiment: Antiproliferative activity against cancer cells (cell line not stated). It is filed as cell-based, human. To be noted: general statement.
Excerpt: as §1
Cells were maintained in various media as follows: A549, LoVo and PC-3 (Ham's F12K medium with 2 mM L-glutamine and 1.5 g/L sodium bicarbonate), MIA PaCa-2 (Dulbecco's modified Eagle's medium with 4 mM L-glutamine and 4.5 g/L glucose), U87-MG (MEM+Earle's BSS). Medium for each cell line was supplemented with 10% FBS and […] Penecillin/Streptomycin. All cells were grown in incubators set at 37° C., 5% CO2. Thiazolyl Blue Tetrazolium Bromide (MTT) based proliferation assays were performed to assess the anti-proliferative activities of the compounds on these cells. Cells were seeded in 96 well plates at a density of 750 cells/well 24 hours prior to compound treatment. The cells were incubated with varying concentrations of compounds for 120 hours. Compound concentrations range from 0.03 to 100 microM (half log increments) except for alpha-Tomatine (0.001-100 microM, half log increments), Neriifolin (0.0002-100 microM) and Peruvoside (0.01-100 microM). Drug treatment was performed in 5 replicate wells. Background absorbance was established by wells containing medium but no cells. Vehicle (DMSO) only was used as control. MTT (Sigma-Aldrich, St. Louis, Mo.) was added to each well at a final concentration of 0.5 mg/ml. Following a 2 hour incubation at 37° C., medium in the wells was replaced with 0.15 ml DMSO. The plates were agitated for 15 min using a microtiter plate shaker. […] Mean absorbance values were calculated from 5 replicate wells of each drug treatment following subtraction of background absorbance from blank samples and plotted as a percentage of control.

The next test concerns U-87 MG cells. Nature of the test: MTT proliferation assay, glioblastoma U-87 MG. It is filed as cell-based. To be noted: Homo sapiens, Tumor Cell: Glioblastoma (U-87 MG), 120 hours, concentrations tested in microM.
Excerpt: as §1
(§2) Cells were maintained in various media as follows: A549, LoVo and PC-3 (Ham's F12K medium with 2 mM L-glutamine and 1.5 g/L sodium bicarbonate), MIA PaCa-2 (Dulbecco's modified Eagle's medium with 4 mM L-glutamine and 4.5 g/L glucose), U87-MG (MEM+Earle's BSS). Medium for each cell line was supplemented with 10% FBS and […] Penecillin/Streptomycin. All cells were grown in incubators set at 37° C., 5% CO2. Thiazolyl Blue Tetrazolium Bromide (MTT) based proliferation assays were performed to assess the anti-proliferative activities of the compounds on these cells. Cells were seeded in 96 well plates at a density of 750 cells/well 24 hours prior to compound treatment. The cells were incubated with varying concentrations of compounds for 120 hours. […] Drug treatment was performed in 5 replicate wells. Background absorbance was established by wells containing medium but no cells. Vehicle (DMSO) only was used as control. MTT (Sigma-Aldrich, St. Louis, Mo.) was added to each well at a final concentration of 0.5 mg/ml. Following a 2 hour incubation at 37° C., medium in the wells was replaced with 0.15 ml DMSO. The plates were agitated for 15 min using a microtiter plate shaker.
On the technique in general: Tetrazolium dyes change colour on reduction, which living cells bring about.

A further test deals with PC-3 cells. As to the kind of experiment: MTT proliferation assay, prostate adenocarcinoma PC-3. It is filed as cell-based, Human. To be noted: for IC50: Homo sapiens, Tumor Cell: Prostate (PC-3), MTT, 120 hours, concentrations tested in microM.
Excerpt: as §1, §2

Another test concerns MIA PaCa-2 cells. Nature of the test: MTT proliferation assay, pancreatic carcinoma MIA PaCa-2. Format: cell-based. The following applies: Homo sapiens, Tumor Cell: Pancreatic (MIA PaCa-2), concentrations tested in microM.
Excerpt: as §1, §2

Another test relates to LoVo cells. As to the kind of experiment: MTT proliferation assay, colon adenocarcinoma LoVo. It is filed as cell-based. To be noted: Homo sapiens, Tumor Cell: Colon (LoVo), 120 hours, concentrations tested in microM.
Excerpt: as §1, §2

Another test concerns A549 cells. Nature of the test: MTT proliferation assay, non-small cell lung carcinoma A549. Format: cell-based, Human. The following applies: Homo sapiens, Tumor Cell: NSCLC (A549), concentrations tested in microM.
Excerpt: as §1, §2

By IC50 is commonly meant the concentration that inhibits the measured activity by half. Read a low IC50 as greater potency in that assay. As for `CC(C)c1c(C(=O)Nc2ccccc2)c(-c2ccccc2)c(-c2ccc(F)cc2)n1CC[C@@H](O)C[C@@H](O)CC(=O)O` [Atorvastatin], in the test on cancer pathways, the “Pathway Activity” value is “invasion/metastasis”. For the same compound, in the test on cancer cells, the “Antiproliferative activity against cancer cells” value is reported as “substantial antiproliferative activity”. This compound displayed an IC50 with U-87 MG cells of 4600 nM.

On to `COC(=O)[C@H]1[C@H]2C[C@H]3c4[nH]c5cc(OC)ccc5c4CCN3C[C@H]2C[C@@H](OC(=O)c2cc(OC)c(OC)c(OC)c2)[C@@H]1OC` [Isoreserpine], for which the IC50 turned out to be 11700 nM with PC-3 cells; 3920 nM in the test with MIA PaCa-2 cells (MIA PaCa-2, 120 h); 2730 nM with LoVo cells; 3950 nM with A549 cells (A549, 120 h); 9020 nM in the test on U-87 MG cells. In addition, in the test with cancer pathways, the “Pathway Activity” value is reported as “apoptosis”. For the same compound, in the test with cancer cells, the “Antiproliferative activity against cancer cells” value is “substantial antiproliferative activity”.

Take `O=C(Nc1ccc([N+](=O)[O-])cc1Cl)c1cc(Cl)ccc1O` [Niclosamide]: the IC50 in the test with PC-3 cells stood at 1330 nM; with MIA PaCa-2 cells (MIA PaCa-2, 120 h), 590 nM; in the test with LoVo cells, 450 nM; with A549 cells (A549, 120 h) it was 660 nM; in the test with U-87 MG cells, 810 nM. In addition, the “Pathway Activity” value in the test on cancer pathways was “apoptosis”. Further, the “Antiproliferative activity against cancer cells” value in the test on cancer cells is “substantial antiproliferative activity”.

Consider `CO[C@H]1[C@H](O)[C@H](O[C@H]2CC[C@@]3(C=O)[C@H](CC[C@@H]4[C@@H]3CC[C@]3(C)[C@@H](C5=CC(=O)OC5)CC[C@]43O)C2)O[C@@H](C)[C@@H]1O` [Peruvoside], for which the “Pathway Activity” value in the test with cancer pathways was “cell cycle”. Further, the IC50 in the test on MIA PaCa-2 cells (120 hours) and with A549 cells (120 hours) was below 30 nM throughout. Besides, the “Antiproliferative activity against cancer cells” value in the test with cancer cells is reported as “substantial antiproliferative activity”.

Take `CN(C)CCCN1c2ccccc2Sc2ccccc21` [Promazine]: the “Pathway Activity” value with cancer pathways is recorded as “proliferation”. The IC50 was 1970 nM in the test on MIA PaCa-2 cells (MIA PaCa-2, 120 h) and 11900 nM in the test on A549 cells (A549, 120 h). Moreover, the “Antiproliferative activity against cancer cells” value in the test with cancer cells is reported as “substantial antiproliferative activity”.

As for `CC(CN1c2ccccc2Sc2ccccc21)N(C)C` (stereo not shown) [Promethazine], the “Pathway Activity” value in the test on cancer pathways is “proliferation”. Moreover, the IC50 with MIA PaCa-2 cells (MIA PaCa-2, 120 h) was found to be 22200 nM; with A549 cells (A549, 120 h) it was 53800 nM. In addition, the “Antiproliferative activity against cancer cells” value in the test on cancer cells was “substantial antiproliferative activity”.

`CCCCCCCCNC(C)C(O)c1ccc(SC(C)C)cc1` (stereo not shown) [Suloctidil]: the “Pathway Activity” value in the test on cancer pathways is given as “invasion/metastasis”. Further, the IC50 in the test with MIA PaCa-2 cells (MIA PaCa-2, 120 h) worked out at 180 nM; in the test with A549 cells (A549, 120 h), 780 nM. In the test with cancer cells, the “Antiproliferative activity against cancer cells” value is “substantial antiproliferative activity”.

`CC(C)(C)c1ccc(C(O)CCCN2CCC(C(O)(c3ccccc3)c3ccccc3)CC2)cc1` (stereo not shown) [Terfenadine]: the IC50 in the test with PC-3 cells turned out to be 1320 nM; with MIA PaCa-2 cells (MIA PaCa-2, 120 h), 350 nM; in the test with LoVo cells, 990 nM; with A549 cells (A549, 120 h), 550 nM; with U-87 MG cells, 380 nM. For the same compound, in the test on cancer pathways, the “Pathway Activity” value is reported as “invasion/metastasis”. In addition, the “Antiproliferative activity against cancer cells” value in the test with cancer cells is “substantial antiproliferative activity”.

`C[C@H]1CC[C@]2(NC1)O[C@H]1C[C@H]3[C@@H]4CC[C@H]5C[C@@H](O[C@@H]6O[C@H](CO)[C@H](O[C@@H]7O[C@H](CO)[C@@H](O)[C@H](O[C@@H]8OC[C@@H](O)[C@H](O)[C@H]8O)[C@H]7O[C@@H]7O[C@H](CO)[C@@H](O)[C@H](O)[C@H]7O)[C@H](O)[C@H]6O)CC[C@]5(C)[C@H]4CC[C@]3(C)[C@H]1[C@@H]2C` [Tomatine]: the “Pathway Activity” value with cancer pathways is on record as “invasion/metastasis”. Moreover, the IC50 came to 100 nM in the test with MIA PaCa-2 cells (120 hours) and 60 nM in the test with A549 cells (120 hours). Further, in the test with cancer cells, the “Antiproliferative activity against cancer cells” value is listed as “substantial antiproliferative activity”.

Regarding `Cc1cccc(Nc2cc(Cl)nc(SCC(=O)O)n2)c1C` [WY-14643], in the test with PC-3 cells (FIG. 1, compared to DMSO control), the “Antiproliferative activity in the PC-3 assay” value was “inactive”.

Consider `CC1(C)CCC2=C(O1)c1ccccc1C(=O)C2=O` [beta-Lapachone], for which the IC50 in the test on PC-3 cells amounted to 630 nM; with MIA PaCa-2 cells (MIA PaCa-2, 120 h), 770 nM; in the test with LoVo cells it was 1400 nM; with A549 cells (A549, 120 h) it was 230 nM; in the test with U-87 MG cells, 860 nM. Moreover, the “Pathway Activity” value in the test on cancer pathways is reported as “apoptosis”. In the test with cancer cells, the “Antiproliferative activity against cancer cells” value was “substantial antiproliferative activity”.
